Source: patent US12532889B2, “Herbicidal compositions comprising glufosinate” (BASF SE, priority 2023, dated 2026)
Values joined by “and” are separate entries in the source; they are usually repeats but may differ in a detail not shown here. Identical values can stand only once.

Tests used:
Assay in all cases: Post-emergence application in field trials (Example A)
Type in all cases: in vivo
ERISS (Erigeron sp.) = conditions: Table 1.8, ERISS height 30-50 cm, 14 DAT, water 200 l/ha
In short: (§1)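 Post-emergence field spray, natural or sown weeds; solo and tank-mix treatments. Visual damage 0% (none) to 100% (complete kill) vs untreated control at indicated DAT. Colby E = expected additive effect; observed above E = synergy.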

[1] = test system: HORVW (Hordeum vulgare (winter barley))
In short: as §1

[2] = test system: POLCO (Polygonum convolvulus); conditions: Table 3.2, A-1 12.5, B-2 500 g ai/ha, 14 DAT, water 100 l/ha
In short: as §1

[3] = test system: LOLMU (Lolium multiflorum)
In short: as §1

[4] = test system: CYPKH (Cyperus kyllingia var. humilis); conditions: Table 5.4; CYPKH growth stage 76-77, height 13-14 cm; A-1 25, B-6 252 g ai/ha; 28 DAT; water 400 l/ha
In short: as §1

[5] = test system: SETPA (Setaria palmifolia); conditions: Table 5.3; SETPA growth stage 76-77; A-1 25, B-6 252 g ai/ha; 28 DAT; water 300 l/ha
In short: as §1

[6] = test system: AMASP (Amaranthus spinosus); conditions: Table 5.5; AMASP growth stage 72; A-1 25, B-6 252 g ai/ha; 28 DAT; water 400 l/ha
In short: as §1

ZEAMX (Zea mays) = test system: ZEAMX (Zea mays)
In short: as §1

[7] = test system: BRAPL (Brachiaria plantaginea); conditions: BRAPL growth stage 24, A-1 50, B-2 400 g ai/ha, water 200 l/ha
In short: as §1

[8] = test system: ECHCG (Echinocloa crus-galli)
In short: as §1

[9] = test system: BOILF (Spermacoce latifolia); conditions: Table 1.16, A-1 25, B-2 400 g ai/ha, 21 DAT, water 200 l/ha
In short: as §1

CYNDA (Cynodon dactylon) = conditions: A-1 25, B-6 252 g ai/ha, 28 DAT, water 400 l/ha
In short: as §1

[10] = test system: DIGSA (Digitaria sanguinalis); conditions: for % Herbicidal activity: A-1 12.5 g ai/ha, growth stage 22
In short: as §1

[11] = test system: SETVE (Setaria verticillata); conditions: 42 DAT, growth stage 21-23, height 8-16 cm
In short: as §1

CYPIR (Cyperus iria) = conditions: Table 2.1, CYPIR growth stage 13-14, height 3-5 cm, 14 DAT, water 300 l/ha
In short: as §1

[12] = test system: AMAPA (Amaranthus palmeri); conditions: Table 1.27, AMAPA height 30 cm, 21 DAT, water 200 l/ha
In short: as §1

[13] = test system: DIGHO (Digitaria horizontalis); conditions: Table 1.4, DIGHO growth stage 24, 14 DAT, water 200 l/ha
In short: as §1

[14] = 7 DAT, A-1 12.5 g ai/ha, growth stage 23-29, height 20-25 cm
[15] = 7 DAT, A-1 18 g ai/ha, growth stage 23-29, height 20-25 cm
[16] = 21 DAT, A-1 12.5 g ai/ha, growth stage 23-29, height 20-25 cm
[17] = 21 DAT, A-1 18 g ai/ha, growth stage 23-29, height 20-25 cm
[18] = 42 DAT, A-1 18 g ai/ha, growth stage 15-16, height 27-33 cm
[19] = 21 DAT, A-1 12.5 g ai/ha, growth stage 23-30, height 15-20 cm
[20] = 21 DAT, A-1 18 g ai/ha, growth stage 23-30, height 15-20 cm

CCOC(=O)COc1ccccc1Oc1nc(-n2c(=O)cc(C(F)(F)F)n(C)c2=O)c(F)cc1Cl [A-1, ethyl 2-[2-[[3-chloro-5-fluoro-6-[3-methyl-2,6-dioxo-4-(trifluoromethyl)pyrimidin-1-yl]-2-pyridyl]oxy]phenoxy]acetate]
% herbicidal activity (ERISS (Erigeron sp.); A-1 25, B-2 400 g ai/ha): 13% | % herbicidal activity (ERISS (Erigeron sp.); A-1 50, B-2 400 g ai/ha): 18% | % Herbicidal activity [1, 14]: 60% | % herbicidal activity [1, 14]: 60% | % Herbicidal activity [1, 15]: 70% | % herbicidal activity [1, 15]: 75% | % Herbicidal activity [1, 16]: 90% and 60% | % herbicidal activity [1, 16]: 70% and 60% | % Herbicidal activity [1, 17]: 70% | % herbicidal activity [1, 17]: 70% and 75% | % herbicidal activity ([1]; Table 6.1, HORVW growth stage 23-29, height 20-25 cm, A-1 12.5, B-6 150 g ai/ha, 7 DAT, 200 l/ha water): 60% | % herbicidal activity ([1]; Table 6.1, HORVW growth stage 23-29, height 20-25 cm, A-1 12.5, B-6 252 g ai/ha, 7 DAT, 200 l/ha water): 60% | % herbicidal activity ([1]; Table 6.1, HORVW growth stage 23-29, height 20-25 cm, A-1 18, B-6 150 g ai/ha, 7 DAT, 200 l/ha water): 70% | % herbicidal activity ([1]; Table 6.1, HORVW growth stage 23-29, height 20-25 cm, A-1 18, B-6 252 g ai/ha, 7 DAT, 200 l/ha water): 70% | % herbicidal activity [2]: 90% | % herbicidal activity ([3]; 7 DAT, A-1 12.5 g ai/ha, growth stage 22-25, height 20-25 cm): 70% | % herbicidal activity ([3]; 21 DAT, A-1 12.5 g ai/ha, growth stage 22-25, height 20-25 cm): 70% | % herbicidal activity ([3]; Table 1.28, LOLMU growth stage 11-23, height 5-10 cm, A-1 25, B-2 400 g ai/ha, 28 DAT, water 200 l/ha): 43% | % herbicidal activity ([3]; Table 6.1, LOLMU growth stage 22-25, height 20-25 cm, A-1 12.5, B-6 252 g ai/ha, 7 DAT, 200 l/ha water): 40% | % herbicidal activity ([3]; Table 6.1, LOLMU growth stage 22-25, height 20-25 cm, A-1 18, B-6 252 g ai/ha, 7 DAT, 200 l/ha water): 50% | % herbicidal activity [4]: 61% | % herbicidal activity [5]: 65% | % herbicidal activity [6]: 84% | % herbicidal activity (ZEAMX (Zea mays); 7 DAT, A-1 12.5 g ai/ha, growth stage 15-16, height 50-60 cm): 80% | % Herbicidal activity (ZEAMX (Zea mays); 21 DAT, A-1 12.5 g ai/ha, growth stage 15-16, height 27-33 cm): 35% | % herbicidal activity (ZEAMX (Zea mays); 21 DAT, A-1 12.5 g ai/ha, growth stage 15-16, height 50-60 cm): 70% | % herbicidal activity (ZEAMX (Zea mays); 28 DAT, A-1 12.5 g ai/ha, growth stage 15-16, height 50-60 cm): 50% | % Herbicidal activity (ZEAMX (Zea mays); 42 DAT, A-1 12.5 g ai/ha, growth stage 15-16, height 27-33 cm): 20% | % Herbicidal activity (ZEAMX (Zea mays); [18]): 30% | % herbicidal activity (ZEAMX (Zea mays); [18]): 20% | % herbicidal activity (ZEAMX (Zea mays); Table 1.12, ZEAMX volunteer corn, A-1 50, B-2 400 g ai/ha, 21 DAT, water 100 l/ha): 83% | % herbicidal activity (ZEAMX (Zea mays); Table 6.1, ZEAMX growth stage 15-16, height 50-60 cm, A-1 18, B-6 252 g ai/ha, 7 DAT, 200 l/ha water): 85% | % herbicidal activity ([7]; Table 1.18, 21 DAT): 42% | % herbicidal activity ([7]; Table 1.4, 14 DAT): 85% | % herbicidal activity ([8]; 7 DAT, A-1 12.5 g ai/ha, growth stage 23-30, height 15-20 cm): 20% | % herbicidal activity ([8]; 7 DAT, A-1 18 g ai/ha, growth stage 23-30, height 15-20 cm): 40% | % Herbicidal activity [8, 19]: 30% and 20% | % herbicidal activity [8, 19]: 20% and 30% | % Herbicidal activity [8, 20]: 30% | % herbicidal activity [8, 20]: 30% and 40% | % Herbicidal activity ([8]; 28 DAT, A-1 12.5 g ai/ha, growth stage 23-30, height 15-20 cm): 20% | % Herbicidal activity ([8]; 28 DAT, A-1 18 g ai/ha, growth stage 23-30, height 15-20 cm): 30% | % herbicidal activity ([8]; Table 6.1, ECHCG growth stage 23-30, height 15-20 cm, A-1 12.5, B-6 150 g ai/ha, 7 DAT, 200 l/ha water): 20% | % herbicidal activity ([8]; Table 6.1, ECHCG growth stage 23-30, height 15-20 cm, A-1 12.5, B-6 252 g ai/ha, 7 DAT, 200 l/ha water): 20% | % herbicidal activity ([8]; Table 6.1, ECHCG growth stage 23-30, height 15-20 cm, A-1 18, B-6 150 g ai/ha, 7 DAT, 200 l/ha water): 30% | % herbicidal activity ([8]; Table 6.1, ECHCG growth stage 23-30, height 15-20 cm, A-1 18, B-6 252 g ai/ha, 7 DAT, 200 l/ha water): 40% | % herbicidal activity [9]: 72% | % herbicidal activity (CYNDA (Cynodon dactylon); Table 5.4, CYNDA growth stage 76-77, height 15-16 cm): 53% | % herbicidal activity (CYNDA (Cynodon dactylon); Table 5.5, CYNDA growth stage 72): 72% | % Herbicidal activity ([10]; 7 DAT, height 10-15 cm): 75% | % Herbicidal activity ([10]; 21 DAT, height 10-15 cm): 70% | % herbicidal activity ([10]; 21 DAT, A-1 18 g ai/ha, growth stage 21-22, height 10-15 cm): 35% | % Herbicidal activity ([10]; 41 DAT, height 10-15 cm): 55% | % Herbicidal activity ([10]; 42 DAT, height 10-15 cm): 55% | % herbicidal activity ([10]; Table 4.1, DIGSA height 2-8 cm, A-1 12.5, B-2 655 g ai/ha, 21 DAT, water 140 l/ha): 27% | % herbicidal activity ([10]; Table 4.1, DIGSA height 2-8 cm, A-1 25, B-2 655 g ai/ha, 21 DAT, water 140 l/ha): 28% | % herbicidal activity ([10]; Table 4.1, DIGSA height 2-8 cm, A-1 50, B-2 655 g ai/ha, 21 DAT, water 140 l/ha): 55% | % herbicidal activity ([10]; Table 6.1, DIGSA growth stage 21-22, height 10-15 cm, A-1 18, B-6 252 g ai/ha, 7 DAT, 200 l/ha water): 40% | % Herbicidal activity ([11]; A-1 12.5 g ai/ha): 60% | % herbicidal activity ([11]; A-1 18 g ai/ha): 50% | % herbicidal activity (CYPIR (Cyperus iria); A-1 12.5, B-2 500 g ai/ha): 30% | % herbicidal activity (CYPIR (Cyperus iria); A-1 25, B-2 500 g ai/ha): 60% | % herbicidal activity ([12]; A-1 12.5, B-2 400 g ai/ha): 70% | % herbicidal activity ([12]; A-1 25, B-2 400 g ai/ha): 85% | % herbicidal activity ([13]; A-1 25, B-2 400 g ai/ha): 57% | % herbicidal activity ([13]; A-1 50, B-2 400 g ai/ha): 65%
